Assay results: US20220128545A1, “METHODS AND COMPOSITIONS FOR ANALYZING PLATELETS BY MASS CYTOMETRY” (Children's Medical Center Corporation, priority 2018, published 2022)
Read-outs that look alike come from different tables or passages of the source. Bridge positions count the residues as written; N and C are the ends. Square brackets hold non-standard residues; d marks the D form. Peptide text beside a SMILES is read from it. hArg = N=C(N)NCCCC[C@H](N)C(=O)O; Mpa = O=C(O)CCS

Experiments:
[1] = test system: platelet surface activated integrin αIIbβ3; test: cells; format: cell-based, human
Procedure: (§1) FIGS. 2A-2D depict a comparison of MC and FFC platforms for measurement of agonist-stimulated integrin αIIbβ3 activation (PAC1) and P-selectin expression (CD62P) on platelets. Citrate-anticoagulated blood from 3 separate healthy donors was treated with vehicle or the indicated concentrations of ADP (A, B) or thrombin receptor activating peptide (TRAP) (C, D); for 30 minutes in the presence of PAC1-FITC or […] antibodies to assess integrin αIIbβ3 activation (A, C) and CD62P-PE or CD62P-172Yb antibodies to assess a-granule secretion (B, D). Samples were fixed in 1% formaldehyde and analyzed by MC or FFC. Data were analyzed using a non-linear fit of log agonist vs. response; variable slope in GraphPad Prism 5. Results are expressed as a percentage of mean metal intensity (MMI; MC readout) or the mean fluorescence intensity (MFI; FFC readout) achieved with 200 μM adenosine diphosphate (ADP) or TRAP, respectively (means±SEM; n=2/3, with n=2 accounting for the linear region of the TRAP dose-response [concentrations 1.5-3.5 μM] and n=3 accounting for all other concentrations [0-1 μM & 5-200 μM]).
(§2) Blood was collected by venipuncture with a 21-gauge butterfly needle into evacuated tubes containing 3.2% sodium citrate. Blood was drawn from healthy volunteers or GT patients who were free from antiplatelet agents and non-steroidal anti-inflammatory drugs for 10 days prior to the donation. The blood draws were performed by the same phlebotomist. Complete blood cell counts were performed in a Sysmex XN-1000 Hematology Analyzer.
(§3) A panel of metal-labeled antibodies directed against platelet antigens of interest was assembled (FIG. 1A). Antibody clones were well-characterized, widely used and purchased from reputable vendors. Platelets in whole blood were reacted with the panel (containing anti-CD9-171Yb, anti-CD29-176Yb, anti-CD31-145Nd, anti-CD36-150Nd, anti-CD42a-155Gd, anti-CD42b-163Dy, anti-CD41-149Sm, anti-CD62P-172Yb, anti-CD61-165Ho, anti-CD63-161Dy, anti-CD107a-166Er, anti-CD154-154Sm, anti-GPVI-152Sm and anti-PAC1-159Tb; see FIG. 1A, Materials, and Table 1 for antibody information) in the presence of vehicle (HT-BSA), TRAP or ADP at the indicated concentrations for 30 minutes (FIG. 1B). Samples were fixed in 1% formaldehyde/HEPES-saline solution containing 125 nM Iridium 191/193 Cell-ID DNA Intercalator for 30 minutes. […] Samples were passed through a 35 μm cell-strainer (Corning Inc, Corning, N.Y.) and analyzed on a Helios Mass Cytometer (Fluidigm Corporation, San Francisco, Calif.; FIG. 1C). […]
(§4) Data were analyzed using GraphPad version 5.0 software (GraphPad Software, La Jolla, Calif.) and are presented as mean±standard error of the mean. […]

[2] = test system: platelet surface P-selectin (CD62P); test: cells; format: cell-based, human
Procedure: as §1, §2, §3, §4

[3] = target: T1, activated integrin αIIbβ3 (Homo sapiens, UniProt P05106+P08514); test: Specificity of in-house metal-tagged PAC1 for integrin αIIbβ3 (agonist stimulation, eptifibatide blockade) by MC; format: cell-based; conditions: whole blood; for Platelet surface activated αIIbβ3 expression compared with unstimulated controls: 200 μM agonist, PAC1-159Tb
T1 construct: endogenous in cells; host or cells: platelets in citrate-anticoagulated human whole blood
From the text: FIG. 6. depicts measuring the specificity of in-house metal-tagged PAC1 for integrin αIIbβ3. […] Samples were fixed in 1% formaldehyde and analyzed by MC. […] Statistical analysis: 1-way ANOVA was used in conjunction with a Bonferroni post-test (with all results compared to the MMI achieved with agonist stimulation) to indicate statistical significance; **P<0.01 and ***P<0.001.
as §3
To compare the MC and FFC platforms for platelet analysis a novel metal-tagged MC antibody panel was designed to target well-established surface markers on platelets (FIG. 1A, Table 1) including platelet surface P-selectin (monitored with anti-CD62P-172Yb) and platelet surface activated integrin αIIbβ3 (monitored with the activation-dependent monoclonal antibody PAC1, labeled in-house with 159Tb). The specificity of PAC1-159Tb for activated αIIbβ3 was assessed by its dependence on platelet activation for binding and by its blockade by the αIIbβ3 inhibitor, eptifibatide (FIG. 6A-6B).

[4] = test system: platelet surface activated integrin αIIbβ3; test: cells; format: cell-based, human; remark: listed apart in the source
Procedure: as §1, §2
(§5) Whole blood FFC analysis of platelet activation was performed as previously described. Three color analysis was performed using two cocktails of fluorescently labeled antibodies: PE-conjugated anti-CD62P, FITC-conjugated PAC1 (directed against the high affinity conformation of integrin αIIbβ3) and PE-Cy5-conjugated anti-CD42b; or PE-conjugated anti-CD41a, FITC-conjugated anti-CD61 and PE-Cy5-conjugated anti-CD42b (see Table 2 for antibody information). Citrate-anticoagulated whole blood was treated with vehicle, TRAP or ADP at the indicated concentrations in the presence of the appropriate fluorescently labeled antibody cocktail for 30 minutes at ambient temperature. Samples were fixed in 1% formaldehyde/HEPES-saline buffer for 30 minutes prior to analysis in a FACSCalibur flow cytometer (BD Biosciences, San Jose, Calif.). Platelets were gated based on forward light scatter, side light scatter and CD42b expression (see FIG. 8 for FFC platelet gating strategy). A total of 15,000 platelet events per sample were collected. […]
as §4

[5] = test system: platelet surface P-selectin (CD62P); test: cells; format: cell-based, human; remark: listed apart in the source
Procedure: as §1, §2, §5, §4

[6] = test system: platelets in whole blood; test: MC panel of 12 additional platelet surface markers during TRAP or ADP stimulation; format: cell-based, human; conditions: 30 minutes; for Platelet surface CD41, CD61, CD63, CD9, CD107a and CD154 / Platelet surface CD42a and CD42b: agonist 0-200 μM; for Surface plasma membrane levels of CD31, CD36, CD29 and GPVI: varying agonist concentrations
Procedure: Citrate-anticoagulated blood from the same 3 separate healthy donors in FIGS. 2A-2D was simultaneously treated with vehicle or the indicated concentrations of TRAP (A) or ADP (B) for 30 minutes in the presence of a custom platelet-specific, metal-tagged antibody panel. This panel contained antibodies directed against CD41, CD61, CD63, CD9, CD107a, CD154, CD42a, CD42b, CD31, CD36, CD29 and GPVI. Samples were fixed in 1% formaldehyde and analyzed by MC. Data were analyzed using a non-linear fit of log agonist vs. response; variable slope or linear regression in GraphPad Prism 5. Results are expressed as a percentage of the mean metal intensity (MMI) achieved with 200 μM ADP or TRAP (means±SEM; n=2/3, with n=2 accounting for the linear region of the TRAP dose-response [concentrations 1.5-3.5 μM)] and n=3 accounting for all other concentrations [0-1 μM and 5-200 μM]). Statistical analysis: 1-way ANOVA was used in conjunction with a Dunnett multiple comparison test (all results compared to vehicle control) to indicate statistical significance; *P<0.05, **P<0.01 and ***P<0.001. Abbreviations: ADP, adenosine diphosphate; FFC, fluorescence flow cytometry; MC, mass cytometry; TRAP, thrombin receptor activating peptide.
A panel of metal-labeled antibodies directed against platelet antigens of interest was assembled (FIG. 1A). Antibody clones were well-characterized, widely used and purchased from reputable vendors. Platelets in whole blood were reacted with the panel (containing anti-CD9-171Yb, anti-CD29-176Yb, anti-CD31-145Nd, anti-CD36-150Nd, anti-CD42a-155Gd, anti-CD42b-163Dy, anti-CD41-149Sm, anti-CD62P-172Yb, anti-CD61-165Ho, anti-CD63-161Dy, anti-CD107a-166Er, anti-CD154-154Sm, anti-GPVI-152Sm and anti-PAC1-159Tb; see FIG. 1A, Materials, and Table 1 for antibody information) in the presence of vehicle (HT-BSA), TRAP or ADP at the indicated concentrations for 30 minutes (FIG. 1B). Samples were fixed in 1% formaldehyde/HEPES-saline solution containing 125 nM Iridium 191/193 Cell-ID DNA Intercalator for 30 minutes. Cells were washed two times in MilliQ deionized H2O to remove salts and resuspended in 0.5 mL of MilliQ deionized H20 containing EQ Four Element Calibration Beads (1:10 v/v [33,000 beads/mL]). Samples were passed through a 35 μm cell-strainer (Corning Inc, Corning, N.Y.) and analyzed on a Helios Mass Cytometer (Fluidigm Corporation, San Francisco, Calif.; FIG. 1C). Cell events were acquired at 300-500 events per second and >30,000 events were acquired in total. Platelets were gated based on DNA content (DNA-low) and CD41/CD61 expression (see FIG. 8 for the MC platelet gating strategy). High-dimensional analyses of platelet subpopulations were carried out using the visual stochastic neighbor embedding (viSNE) cluster analysis function in CYTOBANK™ software (www.cytobank.org). Experiments were carried out by the same scientist and all reagents were from the same lot.

T1 sequence (P08514 32-887 limits assumed): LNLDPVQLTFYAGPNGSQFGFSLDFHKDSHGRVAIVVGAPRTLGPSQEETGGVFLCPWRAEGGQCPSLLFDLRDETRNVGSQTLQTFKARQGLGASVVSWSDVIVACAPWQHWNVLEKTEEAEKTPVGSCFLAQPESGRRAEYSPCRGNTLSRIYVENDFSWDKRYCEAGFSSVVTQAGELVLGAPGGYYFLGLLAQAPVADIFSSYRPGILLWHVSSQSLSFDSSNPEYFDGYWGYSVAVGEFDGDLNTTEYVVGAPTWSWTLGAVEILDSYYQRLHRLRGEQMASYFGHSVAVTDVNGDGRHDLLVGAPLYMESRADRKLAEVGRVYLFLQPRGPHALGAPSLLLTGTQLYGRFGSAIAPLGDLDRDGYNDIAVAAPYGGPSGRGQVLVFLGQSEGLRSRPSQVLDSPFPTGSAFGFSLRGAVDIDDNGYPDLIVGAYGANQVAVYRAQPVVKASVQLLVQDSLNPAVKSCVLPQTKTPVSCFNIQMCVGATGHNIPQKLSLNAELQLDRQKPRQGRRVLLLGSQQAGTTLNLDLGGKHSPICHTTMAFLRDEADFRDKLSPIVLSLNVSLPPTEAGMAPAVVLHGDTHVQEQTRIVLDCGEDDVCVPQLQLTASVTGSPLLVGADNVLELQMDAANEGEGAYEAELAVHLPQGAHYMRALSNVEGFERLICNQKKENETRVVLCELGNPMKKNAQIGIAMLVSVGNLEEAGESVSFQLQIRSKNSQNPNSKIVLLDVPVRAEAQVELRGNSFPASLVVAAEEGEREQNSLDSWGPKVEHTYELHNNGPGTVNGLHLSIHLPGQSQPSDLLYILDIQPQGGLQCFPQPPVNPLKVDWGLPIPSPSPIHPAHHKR
T1 sequence (P08514 891-1039 limits assumed): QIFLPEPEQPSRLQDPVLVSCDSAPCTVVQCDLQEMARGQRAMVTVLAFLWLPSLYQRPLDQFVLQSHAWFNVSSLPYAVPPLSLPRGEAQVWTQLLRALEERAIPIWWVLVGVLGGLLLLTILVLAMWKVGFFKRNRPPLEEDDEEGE
T1 sequence (P05106 27-788): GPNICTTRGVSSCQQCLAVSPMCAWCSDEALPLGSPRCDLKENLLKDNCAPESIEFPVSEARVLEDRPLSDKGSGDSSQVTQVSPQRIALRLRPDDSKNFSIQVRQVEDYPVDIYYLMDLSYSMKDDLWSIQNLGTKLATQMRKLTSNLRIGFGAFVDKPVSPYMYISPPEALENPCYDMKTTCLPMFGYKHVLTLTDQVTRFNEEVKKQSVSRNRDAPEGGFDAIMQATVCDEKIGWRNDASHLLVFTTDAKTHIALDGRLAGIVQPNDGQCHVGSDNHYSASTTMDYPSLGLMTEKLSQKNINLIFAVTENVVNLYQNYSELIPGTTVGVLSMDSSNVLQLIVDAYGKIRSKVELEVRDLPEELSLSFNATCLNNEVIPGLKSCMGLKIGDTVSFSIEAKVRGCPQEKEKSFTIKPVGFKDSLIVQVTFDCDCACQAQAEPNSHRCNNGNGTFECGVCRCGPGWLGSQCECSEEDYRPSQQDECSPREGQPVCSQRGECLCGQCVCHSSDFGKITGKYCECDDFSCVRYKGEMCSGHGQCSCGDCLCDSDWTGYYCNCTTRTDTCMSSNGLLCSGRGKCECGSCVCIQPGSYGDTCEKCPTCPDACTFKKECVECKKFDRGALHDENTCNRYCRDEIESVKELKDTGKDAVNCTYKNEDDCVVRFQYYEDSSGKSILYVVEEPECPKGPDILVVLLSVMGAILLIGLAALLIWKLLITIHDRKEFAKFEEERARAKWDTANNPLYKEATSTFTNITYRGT

Structure (SMILES): Nc1ncnc2c1ncn2[C@@H]1O[C@H](COP(=O)(O)OP(=O)(O)O)[C@@H](O)[C@H]1O [ADP, Adenosine 5′-diphosphate]
- EC50 ([1]; Homo sapiens, Platelet, 0.5 h, MC, anti-PAC1-159Tb, citrate whole blood of healthy donors, 30 minutes, read-out: EC50 for agonist-induced platelet surface activated αIIbβ3): 800 nM
- EC50 ([2]; Homo sapiens, Platelet, 0.5 h, MC, CD62P-172Yb, citrate whole blood of healthy donors, 30 minutes, read-out: EC50 for agonist-induced platelet surface P-selectin expression): 1300 nM
- Platelet surface activated αIIbβ3 expression compared with unstimulated controls [3]: significantly elevated
- EC50 ([4]; Homo sapiens, Platelet, 0.5 h, FFC, anti-PAC1-FITC, citrate whole blood of healthy donors, 30 minutes, read-out: EC50 for agonist-induced platelet surface activated αIIbβ3): 600 nM
- EC50 ([5]; Homo sapiens, Platelet, 0.5 h, FFC, CD62P-PE, citrate whole blood of healthy donors, 30 minutes, read-out: EC50 for agonist-induced platelet surface P-selectin expression): 1200 nM
- Platelet surface CD41, CD61, CD63, CD9, CD107a and CD154 [6]: elevated in a dose-dependent manner
- Platelet surface CD42a and CD42b [6]: stayed constant
- Surface plasma membrane levels of CD31, CD36, CD29 and GPVI [6]: remained constant

Structure (SMILES): CC(C)C[C@H](NC(=O)[C@H](CC(C)C)NC(=O)[C@H](Cc1ccccc1)NC(=O)[C@@H](N)CO)C(=O)N[C@@H](CCCNC(=N)N)C(=O)N[C@@H](CC(N)=O)C(N)=O [TRAP, SFLLRN-NH2]
- EC50 [1]: 3700 nM
- EC50 [2]: 3400 nM
- Platelet surface activated αIIbβ3 expression compared with unstimulated controls [3]: significantly elevated
- EC50 [4]: 2100 nM
- EC50 [5]: 2300 nM
- Platelet surface CD41, CD61, CD63, CD9, CD107a and CD154 [6]: elevated in a dose-dependent manner
- Platelet surface CD42a and CD42b [6]: trend to be dose-dependently decreased
- Surface plasma membrane levels of CD31, CD36, CD29 and GPVI [6]: remained constant

Structure (SMILES): N=C(N)NCCCC[C@@H]1NC(=O)CCSSC[C@@H](C(N)=O)NC(=O)[C@@H]2CCCN2C(=O)[C@H](Cc2c[nH]c3ccccc23)NC(=O)[C@H](CC(=O)O)NC(=O)CNC1=O [eptifibatide] ([Mpa][hArg]GDWPC-NH2; disulfide 1-7)
- Blockade of anti-PAC1-159Tb binding to activated integrin αIIbβ3 ([3]; eptifibatide 2.5 μg/mL, following TRAP/ADP (200 μM) stimulation): completely blocked
